In patent EP0253650A2, “Improvements relating to benzothiophene derivatives” (ELI LILLY AND COMPANY, priority 1986, dated 1988):

Test system: guinea pigs
Assay: Antigen induced anaphylaxis in guinea pigs (ovalbumin aerosol challenge of sensitized animals)
Assay type: in vivo
Details: percent inhibition of anaphylaxis (severity index vs placebo), two hours prior to aerosol challenge
Protocol: Following the general procedure taught by Andersson, Brit. J. Pharmacol., 69, 467 (1980), mixed sex Hartley strain guinea pigs (250-300 g) were sensitized to ovalbumin by a single injection of 1 mcg of ovalbumin mixed with 50 mg of aluminum hydroxide per animal. These animals were used 21 to 26 days later for aerosol challenge with ovalbumin.
Anaphylaxis was induced by exposure to an aerosol of 10 mg of ovalbumin per milliliter of water for 10 minutes delivered by a Tri-R venturi nebulizer, particle size 2 to 5 micron diameter, at a delivery rate of 0.4 ml of solution per minute. The guinea pigs were placed in specially constructed chamber for exposure to the aerosol. The aerosol was introduced from the bottom of the chamber and exhausted at the top. A baffle above the chamber inlet port provided even distribution of the aerosol throughout the chamber. The animals were supported above the inlet on a wire mesh disc. The chamber was under slight negative pressure to enhance the exhaust of the aerosol which was passed through a calcium chloride trap followed by a super-cooled condenser trap.
Groups of five guinea pigs were treated with the compounds of this invention, clinical anti-asthmatic agents, or placebo (vehicle only) two hours prior to the aerosol challenge. All the animals also received 3 mg/kg pyrillamine orally two hours prior to the aerosol challenge in order to blunt the histamine component of the anaphylaxis. The compounds were administered orally as a suspension in 10% acacia or intraperitoneally in 10% acacia.
The number of animals that responded to the aerosol challenge for each of the above parameters as well as the time for the response to occur were recorded. The data were analyzed by comparing the severity index (the sum of the number of animals that coughed, collapsed, and/or died) between the treated and placebo group of guinea pigs. Thus, the maximum severity index for each group of five guinea pigs is 15. On the average, the severity index for the placebo group was 10-12. The percent inhibition of anaphylaxis was determined by the following formula: [formula] where Sd is the severity index for the drug treated animals and Sp is the severity index of the placebo treated animals.

SMILES: CCOc1cc2cc(C(=O)N(CC)CC)sc2cc1OCC [Example 3, N,N-Diethyl-5,6-diethoxybenzo[b]thiophene-2-carboxamide]
- Percent Inhibition (dose 10 mg/kg, I.P.): 44%
- Percent Inhibition (dose 30 mg/kg, I.P.): 89%
- Percent Inhibition (dose 50 mg/kg, I.P.): 82%
- Percent Inhibition (dose 50 mg/kg, P.O.): 38%

SMILES: CCOc1cc2cc(C(=O)Nc3nnn[nH]3)sc2cc1OCC [Example 4, 5,6-Diethoxy-N-1H-tetrazol-5-ylbenzo[b]thiophene-2-carboxamide]
- Percent Inhibition (dose 50 mg/kg, P.O.): 56%

SMILES: CCOc1cc2cc(CO)sc2cc1OCC [Example 7, 5,6-Diethoxybenzo[b]thiophene-2-methanol]
- Percent Inhibition (dose 30 mg/kg, I.P.): 89%
- Percent Inhibition (dose 50 mg/kg, I.P.): 74%
- Percent Inhibition (dose 50 mg/kg, P.O.): 68%

SMILES: CCOc1cc2cc(C#N)sc2cc1OCC [Example 5, 5,6-Diethoxybenzo[b]thiophene-2-carbonitrile]
- Percent Inhibition (dose 30 mg/kg, I.P.): 69%
- Percent Inhibition (dose 50 mg/kg, I.P.): 74-84%
- Percent Inhibition (dose 50 mg/kg, P.O.): 22%

SMILES: CCOc1cc2cc(-c3nnn[nH]3)sc2cc1OCC [Example 6, 5-(5,6-Diethoxybenzo[b]thien-2-yl)-1H-tetrazole]
- Percent Inhibition (dose 50 mg/kg, P.O.): 43%
